Source: ChEMBL document CHEMBL1629634, “Postantibiotic effect of tigecycline against 14 gram-positive organisms” (Antimicrob Agents Chemother, 2009)
≈ marks a conversion by molar mass, not a printed value.

How the values were obtained:
Streptococcus pneumoniae [1] = experiment: Antibacterial activity against penicillin-intermediate Streptococcus pneumoniae assessed as sub-MIC effect at 0.2 times MIC concentration incubated for 1 hr by viable plate count method; format: functional
Enterobacter cloacae [2] = experiment: Antibacterial activity against Enterobacter cloacae assessed as sub-MIC effect at 0.3 times MIC concentration incubated for 1 hr by viable plate count method; format: functional
Streptococcus pneumoniae [3] = experiment: Antibacterial activity against penicillin-susceptible Streptococcus pneumoniae assessed as post-antibiotic sub-MIC effect at 0.4 times MIC concentration pretreated with 10 times MIC concentration for 1 hr followed by 1:1000 dilution by viable plate count method; format: functional
Staphylococcus aureus [4] = experiment: Antibacterial activity against vancomycin-intermediate methicillin-resistant Staphylococcus aureus assessed as sub-MIC effect at 0.3 times MIC concentration incubated for 1 hr by viable plate count method; format: functional
Enterococcus faecalis [5] = experiment: Antibacterial activity against Enterococcus faecalis assessed as post antibiotic effect; format: functional
Streptococcus pneumoniae [6] = experiment: Antibacterial activity against penicillin-resistant Streptococcus pneumoniae assessed as sub-MIC effect at 0.4 times MIC concentration incubated for 1 hr by viable plate count method; format: functional
Staphylococcus aureus [7] = experiment: Antibacterial activity against vancomycin-sensitive methicillin-resistant Staphylococcus aureus assessed as post-antibiotic sub-MIC effect at 0.4 times MIC concentration pretreated with 10 times MIC concentration for 1 hr followed by 1:1000 dilution by viable plate count method; format: functional
Escherichia coli [8] = experiment: Antibacterial activity against Escherichia coli assessed as post-antibiotic sub-MIC effect at 0.4 times MIC concentration pretreated with 6 times MIC concentration for 1 hr followed by 1:1000 dilution by viable plate count method; format: functional
Streptococcus pneumoniae [9] = experiment: Antibacterial activity against penicillin-resistant Streptococcus pneumoniae assessed as sub-MIC effect at 0.2 times MIC concentration incubated for 1 hr by viable plate count method; format: functional
Escherichia coli [10] = experiment: Antibacterial activity against Escherichia coli assessed as post-antibiotic sub-MIC effect at 0.2 times MIC concentration pretreated with 6 times MIC concentration for 1 hr followed by 1:1000 dilution by viable plate count method; format: functional
Enterococcus faecalis [11] = experiment: Antibacterial activity against vancomycin-resistant Enterococcus faecalis by macrodilution method; format: functional
Staphylococcus aureus [12] = experiment: Antibacterial activity against vancomycin-intermediate methicillin-resistant Staphylococcus aureus by macrodilution method; format: functional
Enterococcus faecalis [13] = experiment: Antibacterial activity against vancomycin-sensitive Enterococcus faecalis assessed as sub-MIC effect at 0.3 times MIC concentration incubated for 1 hr by viable plate count method; format: functional
Klebsiella pneumoniae [14] = experiment: Antibacterial activity against Klebsiella pneumoniae assessed as post-antibiotic sub-MIC effect at 0.4 times MIC concentration pretreated with 2 times MIC concentration for 1 hr followed by 1:1000 dilution by viable plate count method; format: functional
Staphylococcus aureus [15] = experiment: Antibacterial activity against vancomycin-intermediate methicillin-resistant Staphylococcus aureus assessed as post-antibiotic sub-MIC effect at 0.2 times MIC concentration pretreated with 6 times MIC concentration for 1 hr followed by 1:1000 dilution by viable plate count method; format: functional
Enterococcus faecalis [16] = experiment: Antibacterial activity against vancomycin-resistant Enterococcus faecalis assessed as post-antibiotic sub-MIC effect at 0.4 times MIC concentration pretreated with 10 times MIC concentration for 1 hr followed by 1:1000 dilution by viable plate count method; format: functional
Enterococcus faecalis [17] = experiment: Antibacterial activity against vancomycin-resistant Enterococcus faecalis assessed as sub-MIC effect at 0.4 times MIC concentration incubated for 1 hr by viable plate count method; format: functional
Escherichia coli [18] = experiment: Antibacterial activity against Escherichia coli assessed as post-antibiotic sub-MIC effect at 0.3 times MIC concentration pretreated with 6 times MIC concentration for 1 hr followed by 1:1000 dilution by viable plate count method; format: functional
Haemophilus influenzae = experiment: Antibacterial activity against amoxicillin, clavulanate-resistant Haemophilus influenzae expressing beta-lactamase assessed as post-antibiotic sub-MIC effect at 0.4 times MIC concentration pretreated with 6 times MIC concentration for 1 hr followed by 1:1000 dilution by viable plate count method; format: functional
Streptococcus pneumoniae [19] = experiment: Antibacterial activity against penicillin-susceptible Streptococcus pneumoniae assessed as post-antibiotic sub-MIC effect at 0.3 times MIC concentration pretreated with 10 times MIC concentration for 1 hr followed by 1:1000 dilution by viable plate count method; format: functional
Enterococcus faecalis [20] = experiment: Antibacterial activity against vancomycin-sensitive Enterococcus faecalis assessed as post-antibiotic sub-MIC effect at 0.4 times MIC concentration pretreated with 10 times MIC concentration for 1 hr followed by 1:1000 dilution by viable plate count method; format: functional
Enterococcus faecalis [21] = experiment: Antibacterial activity against vancomycin-sensitive Enterococcus faecalis assessed as post-antibiotic sub-MIC effect at 0.2 times MIC concentration pretreated with 10 times MIC concentration for 1 hr followed by 1:1000 dilution by viable plate count method; format: functional
Staphylococcus aureus [22] = experiment: Antibacterial activity against vancomycin-intermediate methicillin-resistant Staphylococcus aureus assessed as post antibiotic effect at 10 times MIC concentration incubated for 1 hr measured after 1:1000 dilution by viable plate count method; format: functional
Klebsiella pneumoniae [23] = experiment: Antibacterial activity against Klebsiella pneumoniae assessed as post antibiotic effect at 2 times MIC concentration incubated for 1 hr measured after 1:1000 dilution by viable plate count method; format: functional
Staphylococcus aureus [24] = experiment: Antibacterial activity against vancomycin-intermediate methicillin-resistant Staphylococcus aureus assessed as post antibiotic effect at 6 times MIC concentration incubated for 1 hr measured after 1:1000 dilution by viable plate count method; format: functional
[25] = Drug level in patient serum at 100 mg, iv followed by 50 mg every 12 hrs after 60 mins post dose; format: ADME, organism-based; details: human, read-out: Drug uptake
Enterobacter cloacae [26] = experiment: Antibacterial activity against Enterobacter cloacae assessed as post-antibiotic sub-MIC effect at 0.4 times MIC concentration pretreated with 2 times MIC concentration for 1 hr followed by 1:1000 dilution by viable plate count method; format: functional
Enterobacter cloacae [27] = experiment: Antibacterial activity against Enterobacter cloacae assessed as post-antibiotic sub-MIC effect at 0.4 times MIC concentration pretreated with 10 times MIC concentration for 1 hr followed by 1:1000 dilution by viable plate count method; format: functional
Staphylococcus aureus [28] = experiment: Antibacterial activity against vancomycin-sensitive methicillin-resistant Staphylococcus aureus assessed as post-antibiotic sub-MIC effect at 0.3 times MIC concentration pretreated with 10 times MIC concentration for 1 hr followed by 1:1000 dilution by viable plate count method; format: functional
Klebsiella pneumoniae [29] = experiment: Antibacterial activity against Klebsiella pneumoniae assessed as post-antibiotic sub-MIC effect at 0.4 times MIC concentration pretreated with 10 times MIC concentration for 1 hr followed by 1:1000 dilution by viable plate count method; format: functional
Staphylococcus aureus [30] = experiment: Antibacterial activity against vancomycin-sensitive methicillin-resistant Staphylococcus aureus assessed as post-antibiotic sub-MIC effect at 0.2 times MIC concentration pretreated with 6 times MIC concentration for 1 hr followed by 1:1000 dilution by viable plate count method; format: functional
Staphylococcus aureus [31] = experiment: Antibacterial activity against vancomycin-sensitive methicillin-resistant Staphylococcus aureus assessed as post-antibiotic sub-MIC effect at 0.2 times MIC concentration pretreated with 10 times MIC concentration for 1 hr followed by 1:1000 dilution by viable plate count method; format: functional
Acinetobacter baumannii = experiment: Antibacterial activity against Acinetobacter baumannii assessed as post-antibiotic sub-MIC effect at 0.4 times MIC concentration pretreated with 10 times MIC concentration for 1 hr followed by 1:1000 dilution by viable plate count method; format: functional

Question: For `CN(C)c1cc(NC(=O)CNC(C)(C)C)c(O)c2c1C[C@H]1C[C@H]3[C@H](N(C)C)C(O)=C(C(N)=O)C(=O)[C@@]3(O)C(O)=C1C2=O` [TIGECYCLINE], which PAE (Streptococcus pneumoniae [1]) is on record?
Answer: The PAE was 1.9 h.

Question: What about the PAE (Enterobacter cloacae [2]) of the same molecule?
Answer: The PAE was 0.4 h.

Question: And the PAE (Streptococcus pneumoniae [3])?
Answer: The PAE was 9 h.

Question: What about the PAE (Staphylococcus aureus [4]) of the same molecule?
Answer: The PAE was 2.9 h.

Question: What about the PAE (Enterococcus faecalis [5]) of the same molecule?
Answer: The PAE was 1 h.

Question: And the PAE (Streptococcus pneumoniae [6])?
Answer: Its PAE is 0.7 h.

Question: What about the PAE (Staphylococcus aureus [7]) of the same molecule?
Answer: The PAE was 6.7 h.

Question: And the PAE (Escherichia coli [8])?
Answer: Its PAE is 3.3 h.

Question: What about the PAE (Streptococcus pneumoniae [9]) of the same molecule?
Answer: Its PAE is 0.5 h.

Question: What about the PAE (Escherichia coli [10]) of the same molecule?
Answer: The PAE was 1.9 h.

Question: And the MIC (Enterococcus faecalis [11])?
Answer: Its MIC is 0.06 µg/mL (≈ 0.102 µM).

Question: And the MIC (Staphylococcus aureus [12])?
Answer: The MIC was 0.12 µg/mL (≈ 0.205 µM).

Question: And the PAE (Enterococcus faecalis [13])?
Answer: Its PAE is 0.2 h.

Question: And the PAE (Klebsiella pneumoniae [14])?
Answer: Its PAE is 2.6 h.

Question: What about the PAE (Staphylococcus aureus [15]) of the same molecule?
Answer: The PAE was 5.6 h.

Question: And the PAE (Enterococcus faecalis [16])?
Answer: The PAE was 11 h.

Question: What about the PAE (Enterococcus faecalis [17]) of the same molecule?
Answer: Its PAE is 0.4 h.

Question: What about the PAE (Escherichia coli [18]) of the same molecule?
Answer: Its PAE is 2.9 h.

Question: What about the PAE (Haemophilus influenzae) of the same molecule?
Answer: The PAE was 7.7 h.

Question: And the PAE (Streptococcus pneumoniae [19])?
Answer: Its PAE is 8.8 h.

Question: And the PAE (Enterococcus faecalis [20])?
Answer: The PAE was 8.2 h.

Question: And the PAE (Enterococcus faecalis [21])?
Answer: Its PAE is 5.3 h.

Question: What about the PAE (Staphylococcus aureus [22]) of the same molecule?
Answer: The PAE was 4 h.

Question: What about the PAE (Klebsiella pneumoniae [23]) of the same molecule?
Answer: Its PAE is 1.7 h.

Question: And the PAE (Staphylococcus aureus [24])?
Answer: The PAE was 4 h.

Question: What about the concentration at 1 h [25] of the same molecule?
Answer: The concentration at 1 h was 600 ng/mL.

Question: What about the PAE (Enterobacter cloacae [26]) of the same molecule?
Answer: Its PAE is 6.9 h.

Question: And the PAE (Enterobacter cloacae [27])?
Answer: Its PAE is 7.2 h.

Question: And the PAE (Staphylococcus aureus [28])?
Answer: Its PAE is 5.2 h.

Question: And the PAE (Klebsiella pneumoniae [29])?
Answer: Its PAE is 2.3 h.

Question: And the PAE (Staphylococcus aureus [30])?
Answer: Its PAE is 3.7 h.

Question: What about the PAE (Staphylococcus aureus [31]) of the same molecule?
Answer: Its PAE is 3.6 h.

Question: And the PAE (Acinetobacter baumannii)?
Answer: The PAE was 11.2 h.
